Experimental data reported in patent US11111217B2, “2-arylbenzimidazoles as Ppargc1a activators for treating neurodegenerative diseases” (The Board of Trustees of the Leland Stanford Junior …, priority 2018, dated 2021).
Several values for one entry are separate records, joined by “and”; a condition that tells them apart may be missing. Equal values may be shown once.

How the values were obtained:
[1] = test system: TNF-α production by BV2 cells or PBMC; test: Cellular assay to measure TNF-α inhibition (LPS-stimulated, ELISA); assay type: cell-based, murine (BV2) or human (PBMC); conditions: BV2 cells or PBMC (not specified), LPS 100 ng/ml over 24 hours, relative to DMSO vehicle; compound concentration not stated
Excerpt: Oxidative metabolism exerts an anti-inflammatory effect on myeloid cell phenotype (O'Neill L A, Front Immunol. 2014) and Ppargc1a can promote this energy metabolic pathway (Spiegelman BM, Novartis Found Symp. 2007). Thus, pharmacological activation of Ppargc1a would be expected to inhibit the inflammatory response of myeloid cells. This phenomenon can be measured in cultures by a TNF-α inhibition assay.
Cellular Assay Protocol to Measure TNF-α Inhibition
The murine myeloid cell line BV2 or human peripheral blood mononuclear cells (PBMC) are cultured in RPMI 1640 media (Cat #11875119, Gibco) supplemented with 10% fetal bovine serum and 1% L-glutamine 1% penicillin. These cells are then stimulated with 100 ng/ml of lipopolysaccharide (LPS, O111:B34, Cat # L2630, Sigma) over 24 hours. LPS stimulation results in the secretion of the inflammatory cytokine TNF-α by BV2 cells or PBMC, which can be quantified by ELISA in culture supernatant samples per manufacturer's protocol (Cat #558273 for BV2 and Cat #558299 for PBMC, BD Biosciences). To determine whether exampl compounds 1-78 inhibit TNF-α production by BV2 cells or PBMC, the cells were cultured in the presence of the compounds at different concentrations, and fold reduction in TNF-α production relative to TNF-α production by the same cells cultured in the presence of dimethylsulfoxide (as vehicle control) was determined.

[2] = Microsome stability assay, human liver microsomes; assay type: in vitro ADME; conditions: pH 7.4, 1 μM test compound, NADPH 1 mM, 37° C., 0-40 mins, read-out: HLM t1/2
Method: (§1) Microsome Stability Assay Protocol
(§2) Human liver microsomes (Corning #452117 lot 38291) or Mouse liver microsomes (Corning #452701, lot #6328004) were separately combined at a final concentration of […] with KxPO4 pH 7.4 (100 mM), MgCl2 (10 mM), and test compound (1 μM) and pre-incubated (10 min, 37° C.). Next, NADPH (1 mM) was added to begin reactions (total volume 100 μL). At various time points (0, 10, 20, and 40 mins), reactions were quenched with Clem stop solution (100 μL, 625 ng/mL) (Cyprotex) in Acetonitrile. Samples were centrifuged at 4000 g for 20 mins, diluted (75 μL into 75 μL 0.1% formic acid in water), and analyzed by LC-MS/MS.

[3] = Caco-2 permeability assay; conditions: human, Caco-2, pH 7.4, with elacridar (concentration not stated)
Caco-2 cells = test: Caco-2 permeability assay; conditions: 10 μM, HBSS pH 7.4, 37° C., 2 h; for Caco2 A → B: without elacridar; for Caco2 A → B w/ elacridar: with elacridar as transporter inhibitor
Method: Caco-2 Permeability Assay Protocol
Caco-2 cells were maintained in DMEM in an atmosphere of 5% CO2. For transport experiments 5×10^5 cells/well of were seeded on polycarbonate filter inserts and allowed to grow and differentiate for 21±4 days before the cell monolayers were used for experiments. Apparent permeability coefficients were determined for A→B and B→A directions with and without the presence of elacridar as a transporter inhibitor. Up to three test items and reference compounds were dissolved in Hank's balanced salt solution at pH 7.4 to yield a final concentration of 10 μM.
The assays were performed in HBSS containing 25 mM HEPES (pH 7.4) at 37° C. Prior to the study, the monolayers were washed in prewarmed HBSS. At the start of the experiments prewarmed HBSS containing the test items was added to the donor side of the monolayer and HBSS without test items was added to the receiver side. Aliquots of the receiver side were taken over the 2 h incubation period; aliquots of the donor side were taken at 0 hand 2 h. Aliquots were diluted with an equal volume of methanol/water with 0.1% formic acid containing the internal standard. The mixture was analyzed by LC-MS/MS. The apparent permeability coefficients (Papp) were calculated using the formula: Papp=(dCrec/dt)/(A×C0,donor)]×106 with dCrev/dt being the change in concentration in the receiver compartment with time, C0,donor the concentration in the donor compartment at time 0, and A the area of the compartment with the cells.

[4] = Microsome stability assay, mouse liver microsomes; assay type: in vitro ADME; conditions: pH 7.4, 1 μM test compound, NADPH 1 mM, 37° C., 0-40 mins, read-out: MLM t1/2
Method: as §1, §2

| half-life at 1 μM [2] [min] | Papp A→B at 2 h, 10 μM [3] [×10⁻⁶ cm/s] | Caco2 A → B (Caco-2 cells) | half-life at 1 μM [4] [min] | Caco2 B → A (Caco-2 cells) [nm/s] | Caco2 A → B w/ elacridar (Caco-2 cells) | Structure (SMILES) | TNF α Inhibition [1] |
| --- | --- | --- | --- | --- | --- | --- | --- |
| 31.3 | 0.0634 | 13.3 nm/s | 10.5 |  |  | CC(C)(C)c1cccc(-c2nc3c(F)cc(F)cc3[nH]2)c1 [Example 77, 2-(3-tert-Butylphenyl)-4,6-difluoro-1H-benzo[d]imidazole] | A (A = >80% inh.) |
|  | 1.33 | 16 nm/s |  | 28.5 |  | CC(C)(C)c1ccc(-c2nc3cc(C(N)=O)ccc3[nH]2)cc1 [Example 75, 2-(4-tert-Butylphenyl)-1H-benzo[d]imidazol-5-carboxamide] | A (A = >80% inh.) |
| 4.2 | 3.31 | 93.2 nm/s | 3.2 |  |  | COc1ccc(-c2nc3ccccc3[nH]2)cc1 [Example 21, 2-(4-Methoxy-phenyl)-1H-benzo[d]imidazole] | A (A = >80% inh.) |
| 14.3 | 0.916 | 15.8 nm/s | 19.8 | 40.7 |  | [2H]c1c([2H])c([2H])c2[nH]c(-c3ccc(C(C)(C)C)cc3)nc2c1[2H] [Example 60, 2-(4-tert-Butylphenyl)-4,5,6,7-tetradeuterio-1H-benzo[d]imidazole] | A (A = >80% inh.) |
|  | 2.15 | 24.7 nm/s and 22.3 nm/s |  | 57.1 |  | CC(C)(C)c1ccc(-c2nc3cnccc3[nH]2)cc1 [Example 2, 2-(4-(tert-Butyl)phenyl)-1H-imidazo[4,5-c]pyridine] | A (A = >80% inh.) |
| 59.8 | 0.0336 |  | 132 | 1.31 | 0.005 nm/s | CC(C)(C)c1ccc(-c2nc3c(F)c(F)c(F)c(F)c3[nH]2)cc1 [Example 63, 2-(4-tert-Butylphenyl)-4,5,6,7-tetrafluoro-1H-benzo[d]imidazole] | A (A = >80% inh.) |
| 83.8 | 0.0408 | 0.878 nm/s | 110 | 1.2 |  | CC(C)(C)c1ccc(-c2nc3cc(C(F)(F)F)ccc3[nH]2)cc1 [Example 42, 2-(4-tert-Butylphenyl)-5-(trifluoromethyl)-1H-benzo[d]imidazole] | A (A = >80% inh.) |
| 103 | 0.0849 | 0.748 nm/s | 23.2 | 1.73 |  | CC(C)(C)c1ccc(-c2nc3c(C(F)(F)F)cccc3[nH]2)cc1 [Example 56, 2-(4-tert-Butylphenyl)-4-(trifluoromethyl)-1H-benzo[d]imidazole] | A (A = >80% inh.) |
|  | 0.0282 | 0.532 nm/s and 1.01 nm/s |  |  |  | CCCC(=O)OCn1c(-c2ccc(C(C)(C)C)cc2)nc2ccccc21 [Example 2-P, (2-(4-(tert-Butyl)phenyl)-1H-benzo[d]imidazol-1-yl)methyl butyrate] |  |
| 159 | 0.0014 | 0.0893, nm/s and 0.0565 nm/s | 159 |  |  | CC(C)(C)c1ccc(-c2nc3ccccc3n2COP(=O)(O)O)cc1 [Example 10-P, Dihydrogen ((2-(4-(tert-butyl)phenyl)-1H-benzo[d]imidazol-1-yl)methyl) phosphate] |  |
| 25.1 | 0.251 | 9.33 nm/s and 6.35 nm/s | 5.5 |  |  | COC(=O)n1c(-c2ccc(C(C)(C)C)cc2)nc2ccccc21 [Example 14-P, Methyl 2-(4-(tert-butyl)phenyl)-1H-benzo[d]imidazole-1-carboxylate] |  |

Further lines, the compound ahead of its results:

| Structure (SMILES) | half-life at 1 μM [2] [min] | Papp A→B at 2 h, 10 μM [3] [×10⁻⁶ cm/s] | Caco2 A → B (Caco-2 cells) | half-life at 1 μM [4] [min] | Caco2 B → A (Caco-2 cells) [nm/s] | Caco2 A → B w/ elacridar (Caco-2 cells) | TNF α Inhibition [1] |
| --- | --- | --- | --- | --- | --- | --- | --- |
| [2H]c1cc([2H])c2nc(-c3ccc(C(C)(C)C)cc3)[nH]c2c1 [Example 61, 2-(4-tert-Butylphenyl)-4,6-dideuterio-1H-benzo[d]imidazole] | 13.6 | 1.06 | 15.5 nm/s | 23.8 |  |  | A (A = >80% inh.) |
| CC(C)(C)c1ccc(-c2nc3c(F)c(F)c(F)cc3[nH]2)cc1 [Example 64, 2-(4-tert-Butylphenyl)-4,5,6-trifluoro-1H-benzo[d]imidazole] | 112 | 0.00126 |  | 83.1 | 2.54 | 0.792, nm/s | A (A = >80% inh.) |
| CC(=O)OCn1c(-c2ccc(C(C)(C)C)cc2)nc2ccccc21 [Example 1-P, (2-(4-(tert-Butyl)phenyl)-1H-benzo[d]imidazol-1-yl)methyl acetate] | 10.1 | 0.105 |  |  |  |  |  |
| CC(C)(C)c1ccc(-c2nc3c(F)c(F)ccc3[nH]2)cc1 [Example 55, 2-(4-tert-Butylphenyl)-4,5-difluoro-1H-benzo[d]imidazole] | 20.6 | 0.0693 | 4.27 nm/s | 21.4 | 9.94 |  | A (A = >80% inh.) |
| COc1ccc(-c2nc3c(F)cc(F)cc3[nH]2)cc1 [Example 78, 4,6-Difluoro-2-(4-methoxyphenyl)-1H-benzo[d]imidazole] |  |  |  |  |  |  | C (C = <50% inh.) |
| Fc1ccccc1-c1nc2ccccc2[nH]1 [Example 17, 2-(2-Fluorophenyl)-1H-benzo[d]imidazole] |  |  |  |  |  |  | C (C = <50% inh.) |
| Oc1ccc(-c2nc3ccccc3[nH]2)cc1 [Example 24, 2-(4-Hydroxy-phenyl)-1H-benzo[d]imidazole] |  |  |  |  |  |  | A (A = >80% inh.) |
| CC(C)(C)c1ccc(-c2nc3cc(Cl)ccc3[nH]2)cc1 [Example 37, 2-(4-tert-Butylphenyl)-5-chloro-1H-benzo[d]imidazole] |  |  |  |  |  |  | A (A = >80% inh.) |
| N#Cc1ccc(-c2nc3ccccc3[nH]2)cc1 [Example 18, 2-(4-Cyanophenyl)-1H-benzo[d]imidazole] |  |  |  |  |  |  | C (C = <50% inh.) |
| Cc1ccc2[nH]c(-c3ccc(C(C)(C)C)cc3)nc2c1 [Example 38, 2-(4-tert-Butylphenyl)-5-methyl-1H-benzo[d]imidazole] |  |  |  |  |  |  | A (A = >80% inh.) |
| CC(C)(C)c1ccc(-c2nc3ccccc3[nH]2)cn1 [Example 10, 2-(6-tert-Butyl-3-pyridyl)-1H-benzo[d]imidazole] |  |  |  |  |  |  | A (A = >80% inh.) |
| N#Cc1cccc(-c2nc3ccccc3[nH]2)c1 [Example 30, 2-(3-Cyanophenyl)-1H-benzo[d]imidazole] |  |  |  |  |  |  | C (C = <50% inh.) |
| CC(C)(C)c1ccc(-c2nc3cc(O)ccc3[nH]2)cc1 [Example 32, 2-(4-tert-Butylphenyl)-1H-benzo[d]imidazol-5-ol] |  |  |  |  |  |  | A (A = >80% inh.) |
| c1ccc(COc2ccc(-c3nc4ccccc4[nH]3)cc2)cc1 [Example 73, 2-(4-Benzyloxyphenyl)-1H-benzo[d]imidazole] |  |  |  |  |  |  | C (C = <50% inh.) |
| Brc1ccc(-c2nc3ccccc3[nH]2)cc1 [Example 26, 2-(4-Bromophenyl)-1H-benzo[d]imidazole] |  |  |  |  |  |  | C (C = <50% inh.) |
